Reference: publication PMC4724192 (Biochemistry, 2014)
“And” between values parts separate entries of the source, which are not always exact repeats. Identical values can stand only once. Like-named read-outs stand apart in the source and are kept apart here.

Key:
ERK2 = conditions: read-out: IC50 Published previously; cited from earlier work
2P-ERK2 [1] = target: T1, 2P-ERK2 (Rattus norvegicus, UniProt P63086); experiment: Preincubation / 300-fold dilution experiment, recovery of activity; conditions: for kinetic behaviour of binding and release: linear product accumulation, rapid recovery on dilution
2P-ERK2 [2] = target: T1, 2P-ERK2; conditions: for mode of inhibition (Lineweaver-Burk replots): 2P-ERK2, varying ATP; for Ki: 2P-ERK2, rapid on/off inhibitors, varying ATP, 20 μM sub-D
2P-ERK2 [3] = target: T1, 2P-ERK2; conditions: read-out: IC50 This study; 2P-ERK2, 20 μM sub-D, 100 μM ATP, 25 °C; eq 1
2P-ERK2 [4] = target: T1, 2P-ERK2; format: biochemical
2P-ERK2 [5] = target: T1, 2P-ERK2; experiment: Morrison titration experiment for tight-binding inhibitors; format: biochemical
ERK [6] = conditions: read-out: Kd in vitro; cited from earlier work
ERK [7] = conditions: read-out: IC50 in vivo (biological activity); cited from earlier work
0P-ERK2 = 0P-ERK2 (Rattus norvegicus, UniProt P63086); experiment: biochemical
Sequence of 0P-ERK2 (P63086 whole entry): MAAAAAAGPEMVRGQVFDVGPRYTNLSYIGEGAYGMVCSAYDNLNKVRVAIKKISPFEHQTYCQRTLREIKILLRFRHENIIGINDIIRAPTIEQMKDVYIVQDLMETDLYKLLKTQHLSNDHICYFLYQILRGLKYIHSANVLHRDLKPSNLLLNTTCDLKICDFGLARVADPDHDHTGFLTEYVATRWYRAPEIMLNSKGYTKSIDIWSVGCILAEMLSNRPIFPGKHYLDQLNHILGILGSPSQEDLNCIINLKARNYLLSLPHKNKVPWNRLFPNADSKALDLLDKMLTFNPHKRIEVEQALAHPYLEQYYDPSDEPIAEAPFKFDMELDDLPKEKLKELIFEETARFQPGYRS

T1 sequence (P63086 whole entry): as above

SMILES	IC50 (ERK2) [nM]	kon (rate constant for association), lower bound (2P-ERK2 [1]; 2P-ERK2, inferred from dissociation rate constant >0.05 s^−1)	kinetic behaviour of binding and release (2P-ERK2 [1]; 2P-ERK2)	mode of inhibition (Lineweaver-Burk replots) (2P-ERK2 [2])	Ki (2P-ERK2 [2]) [nM]	IC50 (2P-ERK2 [3]) [nM]	kinetic behaviour of onset of inhibition (2P-ERK2 [4]; 2P-ERK2, curved product accumulation)	kon (2P-ERK2 [4]; read-out: kon (apparent rate constant for association)) [M⁻¹ s⁻¹]	Ki (2P-ERK2 [5]) [nM]	Kd (ERK [6]) [nM]	IC50 (ERK [7])	Ki (0P-ERK2) [nM]	Kd (2P-ERK2 [1]) [nM]	residence time (inverse of koff) (2P-ERK2 [1]; 2P-ERK2, predicted from koff) [h]	koff (2P-ERK2 [1]; read-out: koff (dissociation rate constant)) [s⁻¹]
Nc1[nH]nc2nnc(-c3c(-c4ccccc4)nn4ccccc34)cc12 [FR180204]	140	>0.8 ^d μM^−1 s^−1	rapid on/off inhibitors	competitive versus ATP	63 ± 17	330 ± 64									
Cn1cnc2c(NCc3ccccc3)nc(NCCO)nc21 [Olomoucin]			rapid on/off inhibitors	competitive versus ATP	10800	33000									
Nc1nccc(-c2c(-c3ccc(F)cc3)ncn2C2CCNCC2)n1 [SB220025]			rapid on/off inhibitors												
O=C(Nc1ccc2[nH]nc(-c3ccncc3)c2c1)[C@@H]1CCN(CC(=O)N2CCN(c3ccc(-c4ncccn4)cc3)CC2)C1 [SCH772984]	0.24						slow-onset inhibition	2.8e+06 ± 340000	0.12 ± 0.1	0.19	< 100 nM and 60 nM	0.12 ± 0.04	0.11 ± 0.021	0.9	0.000306
